Converted amounts (≈) assume the structure as drawn. “And” between values parts separate entries of the source, which are not always exact repeats. Equal entries are not always repeated. Residues, ends and D or L forms follow the SMILES beside them.
Key:
[1] = test system: K. pneumoniae FADDI-KP065; type: cell-based, Klebsiella pneumoniae; settings: FADDI-KP065
Method in brief: (§1)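 Each strain is tested in cation-adjusted Mueller–Hinton broth using the micro-dilution technique, and growth inhibition gives the MIC.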

[2] = test system: K. pneumoniae FADDI-KP032; type: cell-based, Klebsiella pneumoniae; settings: FADDI-KP032
Method in brief: as §1

A. baumannii AB5075 = test: Transcriptomic analysis (RNA-Seq) of bacteria; type: cell-based, Acinetobacter baumannii; settings: for logFC (Differential gene expression for all genes), Geneid ABUW_RS00005 / logFC (Differential gene expression for all genes), Geneid ABUW_RS00020 / logFC (Fold change), gene ABUW_RS00010 / logFC (Fold change), gene ABUW_RS00030 / logFC (Fold change), gene ABUW_RS00035 / logFC (Fold change), gene recF (ABUW_RS00015) / 4h_1h logFC (Differential gene expression for all genes), Geneid ABUW_RS00005 / 4h_1h logFC (Differential gene expression for all genes), Geneid ABUW_RS00010 / 4h_1h logFC (Differential gene expression for all genes), Geneid ABUW_RS00015 / 4h_1h logFC (Differential gene expression for all genes), Geneid ABUW_RS00020: RNA-Seq A. baumannii AB5075; for log2FC, gene ABUW_RS01945 (acyl-CoA thioesterase II) / log2FC, gene ABUW_RS02545 (acyl-CoA thioesterase) / log2FC, gene ABUW_RS05045 (acyl-CoA thioesterase) / log2FC, gene ABUW_RS17575 (acyl-CoA thioesterase): pathway Fatty Acid and Lipid Degradation; for 4h_1h logFC (Differential gene expression for all genes), Geneid ABUW_RS00005 / 4h_1h logFC (Differential gene expression for all genes), Geneid ABUW_RS00010 / 4h_1h logFC (Differential gene expression for all genes), Geneid ABUW_RS00015 / 4h_1h logFC (Differential gene expression for all genes), Geneid ABUW_RS00020: 4h vs 1h
Procedure: Mid-log phase A. baumannii AB5075 (~10^8 CFU/mL) in CaMHB was treated with colistin (2 and 8 μg/mL), F287, F319 or F365 (equimolar concentration to colistin) for 1 and 4 h. Total RNA was extracted using TRIzol Reagent (Invitrogen, USA) and RNeasy Mini Kit (Qiagen, Germany). Quality check of RNA samples was conducted with NanoDrop (Thermo Fisher Scientific, USA) and Agilent 2100 Bioanalyzer (Agilent Technologies, USA) for sequencing (150 bp paired-end) at Genewiz (Shanghai, China). Raw reads were aligned to A. baumannii AB5075 genome (GCF_000963815, https://www.ncbi.nlm.nih.gov/assembly/GCF_000963815.1/) using subread-aligner (subread 2.0.1) and summarized by featureCounts (subread 2.0.1). Principal component analysis (PCA) was conducted with mixOmics 6.14.1 in R. Differentially expressed genes were determined using limma 3.46.0 with a combination of fold change ≥ 2 and false discovery rate (FDR, by Benjamini–Hochberg algorithm) adjusted P-value ≤ 0.05 (n = 3). Enrichment analysis of gene differential expression in AB5075 was conducted using BioCyc (A. baumannii AB5075, version 25.5). UpSetR 1.4.0, ComplexHeatmap 2.6.2 and circlize 0.4.13 were used for data visualization. Raw data were deposited in Short Reads Archive (SRA) database under accession numbers SRR15235669-SRR15235725.

P. aeruginosa ATCC 27853 = test: Neutropenic mouse bloodstream infection model; type: in vivo; settings: single IV dose 4 mg/kg
Method in brief: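 Female Swiss mice made neutropenic with cyclophosphamide (150 mg/kg day −4, 100 mg/kg day −1), infected IV with 50 µL of 4 × 10^8 CFU/mL. Lipopeptide 4 mg/kg (free base) IV at 2 h post-inoculation, n = 3. Efficacy = Δlog10 CFU/mL blood versus saline at 4 h post-dose.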

SMILES: CCCCCCCC(=O)N[C@@H](CCN)C(=O)N[C@H](C(=O)N[C@@H](CCN)C(=O)N[C@H]1CCNC(=O)[C@H]([C@@H](C)O)NC(=O)[C@H](CCN)NC(=O)[C@H](CCN)NC(=O)[C@H](CC)NC(=O)[C@@H](CC(C)C)NC(=O)[C@H](CCN)NC1=O)[C@@H](C)O [Lipopeptide F319] (HELM PEPTIDE1{[CCCCCCCC(=O)[*:2]].[Dab].T.[Dab].[Dab].[Dab].[dL].[Abu].[Dab].[Dab].T}$PEPTIDE1,PEPTIDE1,5:R3-11:R2$$$V2.0)
- MIC K. pneumoniae FADDI-KP065 [1]: <0.125 µg/mL
- MIC K. pneumoniae FADDI-KP032 [2]: 0.25 µg/mL (≈ 0.222 µM)
- logFC (Differential gene expression for all genes), Geneid ABUW_RS00005 (A. baumannii AB5075; H vs Cont, 1h): -0.09763
- logFC (Differential gene expression for all genes), Geneid ABUW_RS00020 (A. baumannii AB5075; H vs Cont, 1h): 0.4439
- logFC (Fold change), gene ABUW_RS00010 (A. baumannii AB5075; H vs Cont, 1h): 0.5437
- logFC (Fold change), gene ABUW_RS00030 (A. baumannii AB5075; H vs Cont, 1h): -0.5665
- logFC (Fold change), gene ABUW_RS00035 (A. baumannii AB5075; H vs Cont, 1h): 1.083
- logFC (Fold change), gene recF (ABUW_RS00015) (A. baumannii AB5075; H vs Cont, 1h): -0.2736
- log2FC, gene ABUW_RS01945 (acyl-CoA thioesterase II) (A. baumannii AB5075; H vs Cont, 1h): 0.4348
- log2FC, gene ABUW_RS02545 (acyl-CoA thioesterase) (A. baumannii AB5075; H vs Cont, 1h): 1.57
- log2FC, gene ABUW_RS05045 (acyl-CoA thioesterase) (A. baumannii AB5075; H vs Cont, 1h): 0.3422
- log2FC, gene ABUW_RS17575 (acyl-CoA thioesterase) (A. baumannii AB5075; H vs Cont, 1h): -0.5597
- logFC (Differential gene expression for all genes), Geneid ABUW_RS00005 (A. baumannii AB5075; H vs Cont, 4h): -0.2808
- logFC (Differential gene expression for all genes), Geneid ABUW_RS00020 (A. baumannii AB5075; H vs Cont, 4h): -0.01751
- logFC (Fold change), gene ABUW_RS00010 (A. baumannii AB5075; H vs Cont, 4h): 1.173
- logFC (Fold change), gene ABUW_RS00030 (A. baumannii AB5075; H vs Cont, 4h): -1.885
- logFC (Fold change), gene ABUW_RS00035 (A. baumannii AB5075; H vs Cont, 4h): 0.8498
- logFC (Fold change), gene recF (ABUW_RS00015) (A. baumannii AB5075; H vs Cont, 4h): -1.612
- log2FC, gene ABUW_RS01945 (acyl-CoA thioesterase II) (A. baumannii AB5075; H vs Cont, 4h): -0.7411
- log2FC, gene ABUW_RS02545 (acyl-CoA thioesterase) (A. baumannii AB5075; H vs Cont, 4h): 1.194
- log2FC, gene ABUW_RS05045 (acyl-CoA thioesterase) (A. baumannii AB5075; H vs Cont, 4h): 0.6506
- log2FC, gene ABUW_RS17575 (acyl-CoA thioesterase) (A. baumannii AB5075; H vs Cont, 4h): -1.957
- 4h_1h logFC (Differential gene expression for all genes), Geneid ABUW_RS00005 (A. baumannii AB5075; H): -0.8466
- 4h_1h logFC (Differential gene expression for all genes), Geneid ABUW_RS00010 (A. baumannii AB5075; H): 0.6539
- 4h_1h logFC (Differential gene expression for all genes), Geneid ABUW_RS00015 (A. baumannii AB5075; H): -1.958
- 4h_1h logFC (Differential gene expression for all genes), Geneid ABUW_RS00020 (A. baumannii AB5075; H): 0.139
- logFC (Differential gene expression for all genes), Geneid ABUW_RS00005 (A. baumannii AB5075; L vs Cont, 1h): 0.2742
- logFC (Differential gene expression for all genes), Geneid ABUW_RS00020 (A. baumannii AB5075; L vs Cont, 1h): 0.3388
- logFC (Fold change), gene ABUW_RS00010 (A. baumannii AB5075; L vs Cont, 1h): 0.1491
- logFC (Fold change), gene ABUW_RS00030 (A. baumannii AB5075; L vs Cont, 1h): 0.2512
- logFC (Fold change), gene ABUW_RS00035 (A. baumannii AB5075; L vs Cont, 1h): -0.1567
- logFC (Fold change), gene recF (ABUW_RS00015) (A. baumannii AB5075; L vs Cont, 1h): 0.1396
- log2FC, gene ABUW_RS01945 (acyl-CoA thioesterase II) (A. baumannii AB5075; L vs Cont, 1h): 0.4255
- log2FC, gene ABUW_RS02545 (acyl-CoA thioesterase) (A. baumannii AB5075; L vs Cont, 1h): 0.2059
- log2FC, gene ABUW_RS05045 (acyl-CoA thioesterase) (A. baumannii AB5075; L vs Cont, 1h): -0.2352
- log2FC, gene ABUW_RS17575 (acyl-CoA thioesterase) (A. baumannii AB5075; L vs Cont, 1h): 0.153
- logFC (Differential gene expression for all genes), Geneid ABUW_RS00005 (A. baumannii AB5075; L vs Cont, 4h): 0.0635
- logFC (Differential gene expression for all genes), Geneid ABUW_RS00020 (A. baumannii AB5075; L vs Cont, 4h): -0.109
- logFC (Fold change), gene ABUW_RS00010 (A. baumannii AB5075; L vs Cont, 4h): 0.1358
- logFC (Fold change), gene ABUW_RS00030 (A. baumannii AB5075; L vs Cont, 4h): 0.06806
- logFC (Fold change), gene ABUW_RS00035 (A. baumannii AB5075; L vs Cont, 4h): 0.1484
- logFC (Fold change), gene recF (ABUW_RS00015) (A. baumannii AB5075; L vs Cont, 4h): -0.1014
- log2FC, gene ABUW_RS01945 (acyl-CoA thioesterase II) (A. baumannii AB5075; L vs Cont, 4h): 0.08809
- log2FC, gene ABUW_RS02545 (acyl-CoA thioesterase) (A. baumannii AB5075; L vs Cont, 4h): -0.3183
- log2FC, gene ABUW_RS05045 (acyl-CoA thioesterase) (A. baumannii AB5075; L vs Cont, 4h): 0.2863
- log2FC, gene ABUW_RS17575 (acyl-CoA thioesterase) (A. baumannii AB5075; L vs Cont, 4h): 0.3089
- 4h_1h logFC (Differential gene expression for all genes), Geneid ABUW_RS00005 (A. baumannii AB5075; L): -0.004361
- 4h_1h logFC (Differential gene expression for all genes), Geneid ABUW_RS00010 (A. baumannii AB5075; L): -0.867
- 4h_1h logFC (Differential gene expression for all genes), Geneid ABUW_RS00015 (A. baumannii AB5075; L): -0.3076
- 4h_1h logFC (Differential gene expression for all genes), Geneid ABUW_RS00020 (A. baumannii AB5075; L): -0.09503
- Log10 CFU/mL blood at 4 h, Mean (P. aeruginosa ATCC 27853; 4 h): 4.01 Log10 CFU/mL blood
- Δlog10 CFU/mL blood (mean) (P. aeruginosa ATCC 27853; 4 h, treated minus control, mean of replicates, 4 mg/kg): −3.44 log10 CFU/mL blood
- Log10 CFU/mL blood at 4 h, single mouse (P. aeruginosa ATCC 27853; 4 h, 4 mg/kg): 3.87 Log10 CFU/mL blood and 4.06 Log10 CFU/mL blood and 4.10 Log10 CFU/mL blood
- Delta Log10 CFU/mL blood at 4 h, single mouse (P. aeruginosa ATCC 27853; treated mouse minus mean of vehicle mice, 4 mg/kg): -3.57 Log10 CFU/mL blood and -3.38 Log10 CFU/mL blood and -3.35 Log10 CFU/mL blood

From PMC8956739, “A synthetic lipopeptide targeting top-priority multidrug-resistant Gram-negative pathogens” (Nature Communications, 2022)
